The values that follow come from PubChem BioAssay (NCI).

Molecules are shown by their SMILES.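 96-well plates; 48 h exposure; 5 concentrations. Endpoints by linear interpolation between flanking doses. Not reached: highest tested concentration assigned. TGI is the concentration that stops growth completely.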 Numbered stars: 1 amine (or outer) side, 2 acyl side, 3 side chain; on linkers, the order of the positions; unused ones are H or OH. Bridge positions count the residues as written; N and C are the ends. Square brackets hold non-standard residues; d marks the D form. Peptide text beside a SMILES is read from it. I, II: the chains in the order shown. Actinocin(1to9) = Cc1c2oc3c(C)ccc(C(=O)[*:2])c3nc-2c(C(=O)[*:1])c(N)c1=O; NMeV = CN[CH](C(=O)O)C(C)C; Sar = CNCC(=O)O

What all share (experiment): inhibition of tumour cell growth, NCI panel, 48 h
The subject of assay [1] is BT-549 breast.
For assay [2], the system named is MDA-N.
The subject of assay [3] is SW-620 colon.
Assay [4] deals with NCI-H460 lung.
Assay [5] deals with HCT-15 colon.
For assay [6], the system named is NCI-H522 lung.
Assay [7] has as its system SN12C renal.
Assay [8] relates to U251 CNS.
The test system of assay [9] is COLO 205 colon.
The test system of assay [10] is MALME-3M melanoma.

On to `Cc1cc(C)nc(NS(=O)(=O)c2ccc(NC(=O)c3ccc4nc5ccccc5c(Nc5ccc(S(=O)(=O)Nc6nc(C)cc(C)n6)cc5)c4c3)cc2)n1`, for which the TGI is 69.7 µM in [1]; over 100 µM in [2]; over 100 µM in assay [3]; over 100 µM in [4]; over 100 µM in assay [5]; 53.5 µM in assay [6]. The TGI in [7], in assay [8], in assay [9] and in assay [10] was over 100 µM throughout.
In the case of `CC(C)[Si](OC1=CCC[C@H]2NC(=O)[C@@H](Cc3ccc([N+](=O)[O-])cc3)[C@@]12C)(C(C)C)C(C)C`, the TGI in [1] turned out to be 13.2 µM; in assay [2], 18 µM; in assay [4] it was 10.5 µM; in assay [5], 15.6 µM; in assay [6], 17.9 µM; in assay [7], 3.8 µM. Besides, the TGI was determined as 17 µM in assay [9] and 43.4 µM in assay [10].
In the case of `CCN(CC)c1ccc2cc(-c3csc(-c4ccc(N(C)C)cc4)n3)c(=O)oc2c1`, the TGI in [1], in assay [2], in assay [3], in assay [4], in assay [5] and in [6] was over 100 µM each time. In addition, the TGI in assay [7], in assay [8], in assay [9] and in [10] was over 100 µM in each case.
Take `NNC(=O)CSc1nnc(CCCCCCCCc2nnc(SCC(=O)NN)o2)o1`: the TGI in assay [1], in assay [2], in assay [3], in [4], in assay [5] and in [6] was over 100 µM each time. Moreover, the TGI in assay [7], in assay [8], in [9] and in assay [10] was over 100 µM in each case.
With `O=c1[nH]c(=S)c2[nH]c(=O)n(-c3ccccc3)c2[nH]1`, the TGI in assay [1], in [2], in [3], in [4], in [5] and in [6] was over 100 µM each time. Moreover, the TGI in assay [7], in [8] and in assay [10] was over 100 µM throughout.
On to `O=c1ccc2nc3ccc(O)cc3oc-2c1`, for which the TGI in assay [1] was 44 µM; in [2] it was 3.43 µM; in [3], over 88.9 µM; in [4] it was over 100 µM; in assay [5] it was over 100 µM; in [6] it was over 73.5 µM. Also, the TGI in [7] is over 100 µM; in [8], over 100 µM; in assay [9] it was 24.9 µM; in assay [10], 8.76 µM.
As for `S=c1sscc1N1CCSc2ssc(=S)c21`, the TGI in [1] is over 100 µM; in [2], over 100 µM; in assay [3], over 100 µM; in [4], over 100 µM; in [5], over 100 µM; in [6] it was 59.7 µM. Besides, the TGI is over 100 µM in assay [7], 38.2 µM in assay [8], over 100 µM in assay [9] and over 100 µM in assay [10].
For the compound `CCOC(=O)c1c(CN2CCOCC2)n(Cc2ccccc2)c2c1cc(O)c1nc(C)c(C)nc12`, the TGI is 34 µM in [1]; over 100 µM in assay [2]; over 100 µM in assay [3]; over 100 µM in assay [4]; over 100 µM in assay [5]; over 100 µM in assay [7]. In addition, the figures for the TGI in assay [8], in [9] and in assay [10] were 74.3 µM, over 100 µM and over 100 µM, respectively.
For `C=C(C)COC(=O)COCC(=O)OCC(=C)C`, the TGI in assay [1], in assay [2], in [3], in [4], in [5] and in assay [7] was over 100 µM in each case. The TGI in assay [8], in [9] and in assay [10] was over 100 µM throughout.
For the compound `O=Cc1ccc2[nH]c(=O)oc2c1`, the TGI in [1], in [2], in [3], in assay [4], in assay [5] and in assay [7] was over 100 µM in each case. Moreover, the TGI in [8], in assay [9] and in assay [10] was over 100 µM each time.
As to `O=C(CC(C(=O)c1cccs1)c1ccccc1)c1ccccc1O` (stereo not given), the TGI is over 100 µM in assay [1]; over 100 µM in assay [2]; over 100 µM in [3]; over 100 µM in [4]; over 100 µM in assay [5]; 10.4 µM in assay [6]. In addition, the TGI is over 100 µM in assay [7], over 30.2 µM in [8] and over 100 µM in assay [9].
As to `Cc1cn(C2CC(O)C(Cn3nncc3Cn3ccc(=O)[nH]c3=O)O2)c(=O)[nH]c1=O` (stereo not given), the TGI in assay [1], in assay [2], in assay [3], in [5], in [6] and in assay [7] was over 100 µM throughout. Besides, the TGI in [8], in assay [9] and in [10] was over 100 µM each time.
In the case of `Nc1ccc2c(c1)S(=O)(=O)c1cc(N)ccc1-2`, the TGI in assay [1], in [2], in assay [3], in [4], in [5] and in assay [6] was over 100 µM throughout. For the same compound, the TGI in assay [7], in assay [8] and in assay [9] was over 100 µM each time.
Turning to `COC(=O)C(=O)C(C(=O)C(=O)Nc1nc(=S)[nH][nH]1)c1nc2ccc([N+](=O)[O-])cc2[nH]c1=O` (stereo not given), the TGI in assay [1], in [2], in assay [3], in assay [4], in [5] and in assay [6] was over 100 µM each time. Further, the TGI in assay [7], in [8] and in [10] was over 100 µM each time.
Take `N#C/C=C\c1ccc(-c2cc(C(F)(F)F)cc(C(F)(F)F)c2)o1`: the TGI is 76.8 µM in assay [1]; 71.6 µM in [2]; over 100 µM in [3]; over 100 µM in assay [4]; over 100 µM in [6]; over 100 µM in assay [7]. Further, the values for the TGI in assay [8], in assay [9] and in assay [10] were 27.4 µM, over 100 µM and over 100 µM, respectively.
`C1COCCOP2(N3CC3)=NP(N3CC3)(=NP(N3CC3)(N3CC3)=N2)OCCOCCO1` (stereo not given): the TGI in [1], in assay [2], in assay [3], in assay [5], in [6] and in [7] was over 100 µM each time. Also, the TGI in [8], in assay [9] and in assay [10] was over 100 µM each time.
For `CCC(C)C1NC(=O)C(NC(=O)c2c3nc4c(C(=O)NC5C(=O)NC(C(C)C)C(=O)N6CCCC6C(=O)N(C)CC(=O)N(C)C(C(C)C)C(=O)OC5C)ccc(C)c4oc-3c(C)c(=O)c2N)C(C)OC(=O)C(C(C)C)N(C)C(=O)CN(C)C(=O)C2CCCN2C1=O` (stereo not given) (I: TIP[Sar][NMeV] / II: TVP[Sar][NMeV]; ester I:1-I:C, II:1-II:C; linker I:N-II:N via Actinocin(1to9); configuration not given here), the TGI in [1] came out at 0.0627 µM; in [2] it was 0.0244 µM; in [5], 14.2 µM; in assay [6], 0.0158 µM; in assay [7], 0.498 µM; in [8], 10.1 µM. Moreover, the TGI in [9] came to 0.0163 µM; in [10] it was 0.028 µM.
Consider `CC(=O)c1cccc(NC(=O)/C(=N\NC(=S)NN)C2C(=O)Nc3ccccc3S2=O)c1` (stereo not given), for which the TGI in assay [1], in assay [2], in assay [3], in assay [6], in [7] and in [8] was over 100 µM each time. In addition, the TGI in assay [10] was over 100 µM.
As to `CC1OC(n2cnc3c(N)nc(Cl)nc32)C(C)(O)C1O` (stereo not given), the TGI in assay [1], in assay [2], in [3], in assay [5], in assay [6] and in assay [7] was over 25 µM throughout. Further, the TGI in assay [9] and in assay [10] was over 25 µM each time.
On to `CC1(C)O[C@@H](CP(c2ccc3ccccc3c2)c2ccc3ccccc3c2)[C@H](CP(c2ccc3ccccc3c2)c2ccc3ccccc3c2)O1`, for which the TGI in assay [1], in assay [2], in assay [3], in assay [4], in assay [5] and in [6] was over 100 µM throughout. In addition, the TGI in assay [7], in [8] and in [9] was over 100 µM throughout.
